What was measured:
human CA-I (CA1) [1] = molecular target: T1, human CA-I (CA1) (Homo sapiens (Human), UniProt P00915); assay: biochemical
Method: (§1) Cytiva Biacore S200, T200 and 3000 machines were used for all SPR experiments. […] For carbonic anhydrases, data were collected at a constant temperature of 25° C. Human CA-I (CA1) or human CA-II (CA2) was captured via standard EDC/NHS protocol on a Biacore CM5 chip using standard protocols in HBS-N buffer (10 mM HEPES (pH 7.4), 150 mM NaCl) at ˜2000 RU. The experiments were run in PBS buffer containing 0.05% Tween 20 and 3% DMSO. All compounds were initially screened at concentrations ranging from 23 nM to 50 µM or 4.6 nM to 10 µM, injecting from the lowest to highest concentrations and adjusting appropriately for each compound for repeat experiments. Scrubber 2 (Biologic software) was used to process and analyse SPR data. […] Data for the inhibitors were referenced to those for a blank surface and blank injections to normalise for non-specific binding and drift. A DMSO calibration was run to remove excluded volume effect of binding responses between reference and target surface.

human CA-II (CA2) [2] = molecular target: T2, human CA-II (CA2) (Homo sapiens (Human), UniProt P00918); assay: biochemical
Method: as §1

[3] = molecular target: ENPP1 expressed by MCF-7 cells (Homo sapiens (Human), UniProt P22413); assay: cell-based
Method: ENPP1 inhibition was assessed in a human cellular co-culture assay using THP1-Dual interferon reporter cells from InvivoGen (Cat No. thpd-nfis), see Goswami et al., 2022, and MCF-7 cancer cells.
MCF-7 cells were seeded at 10,000 cells/well in a 96 well plate and 24 h later compounds were added in DMEM+GlutaMAX media+2% Hyclone FBS, with a final DMSO of 0.2%. 2′3′-cGAMP was added at a final concentration of 10 μM and incubated for 30 mins at 37° C. 20,000 THP-1 cells were added per well and incubated for 48 h. IFN response was measured by Quanti-Luc Gold according to the manufacturer's instructions using 15 μL Quanti-Luc Gold per well. Luminescence was measured on an EnSight reader (PerkinElmer).

Human ENPP1 = Human ENPP1 (Homo sapiens (Human), UniProt P22413)
Method: ENPP1 catalyses the hydrolysis of ATP into AMP+PPi. AMP production was monitored using Bellbrooks Transcreener AMP/GMP TR-FRET assay kit (Cat No. 3020-10K) according to the manufacturer's instructions. The assay was run with 50 mM Tris pH 7.5, 5 mM MgCl2, 150 mM NaCl, 0.005% Tween20 and distilled H2O. Antibody and tracer were diluted to 2 nM. […] Mouse ENPP1 was run at 15 pM with ATP at 400 nM. AMP produced in the assay by ENPP1 activity competes with a far-red tracer labelled AMP bound to an AMP specific antibody resulting in a decrease in TR-FRET. ENPP1 inhibition reduces AMP production and increases the TR-FRET signal.

human CA-II (CA2) [4] = molecular target: T2, human CA-II (CA2); assay: Surface plasmon resonance, carbonic anhydrase II; details: 25° C., CM5 chip
Method: as §1

human CA-I (CA1) [5] = molecular target: T1, human CA-I (CA1); assay: Surface plasmon resonance, carbonic anhydrase I; details: 25° C., CM5 chip
Method: as §1

Sequence of ENPP1 expressed by MCF-7 cells (P22413 whole entry): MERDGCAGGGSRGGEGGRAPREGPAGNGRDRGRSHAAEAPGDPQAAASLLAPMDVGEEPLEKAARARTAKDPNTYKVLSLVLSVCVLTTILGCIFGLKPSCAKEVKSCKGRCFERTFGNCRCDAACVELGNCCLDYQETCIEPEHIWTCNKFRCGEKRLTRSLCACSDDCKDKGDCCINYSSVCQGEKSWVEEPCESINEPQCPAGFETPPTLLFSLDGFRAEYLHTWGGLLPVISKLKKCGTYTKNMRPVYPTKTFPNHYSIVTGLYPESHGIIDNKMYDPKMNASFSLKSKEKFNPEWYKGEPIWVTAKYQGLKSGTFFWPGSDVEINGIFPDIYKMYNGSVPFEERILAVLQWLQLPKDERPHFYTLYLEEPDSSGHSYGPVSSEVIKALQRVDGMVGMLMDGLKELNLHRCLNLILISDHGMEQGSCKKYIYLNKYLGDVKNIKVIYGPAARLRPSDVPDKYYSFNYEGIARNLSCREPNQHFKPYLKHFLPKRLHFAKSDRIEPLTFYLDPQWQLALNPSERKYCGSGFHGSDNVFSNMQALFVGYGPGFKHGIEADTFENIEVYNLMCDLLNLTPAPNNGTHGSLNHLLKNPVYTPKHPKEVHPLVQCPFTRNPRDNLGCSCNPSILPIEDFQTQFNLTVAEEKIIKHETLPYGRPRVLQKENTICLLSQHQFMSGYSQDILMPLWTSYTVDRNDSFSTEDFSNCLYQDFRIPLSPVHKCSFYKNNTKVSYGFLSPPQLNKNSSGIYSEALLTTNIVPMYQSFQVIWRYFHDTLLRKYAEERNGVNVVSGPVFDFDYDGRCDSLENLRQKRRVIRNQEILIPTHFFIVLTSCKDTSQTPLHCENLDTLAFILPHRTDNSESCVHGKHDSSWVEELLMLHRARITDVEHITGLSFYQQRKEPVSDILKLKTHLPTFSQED
Sequence of Human ENPP1 (P22413 whole entry): as above
T1 sequence (P00915 whole entry): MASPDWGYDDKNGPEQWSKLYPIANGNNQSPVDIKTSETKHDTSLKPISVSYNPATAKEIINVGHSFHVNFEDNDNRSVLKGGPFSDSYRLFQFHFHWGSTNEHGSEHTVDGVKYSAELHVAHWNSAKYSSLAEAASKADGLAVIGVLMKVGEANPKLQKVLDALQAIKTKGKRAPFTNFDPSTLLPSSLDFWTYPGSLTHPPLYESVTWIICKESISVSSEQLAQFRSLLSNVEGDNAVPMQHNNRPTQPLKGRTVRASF

Structure (SMILES)	Kd (human CA-I (CA1) [1]) [µM]	Kd (human CA-II (CA2) [2]) [µM]	EC50 [3] [µM]	EC50 (Human ENPP1) [µM]	also measured
CCc1nc2n(Cc3ccc(S(C)(=N)=O)cc3)cc(C(C)C)c(=O)n2n1 (racemic) [31 Rac]	> 100000	> 100000			
CC(C)c1cn(C[C@H]2C[C@H]3C[C@@H]2CN3S(N)(=O)=O)c2nc(C(F)(F)F)nn2c1=O (racemic) [Compound 36, rac-(1R,4R,5R)-5-((6-isopropyl-7-oxo-2-(trifluoromethyl)-[1,2,4]triazolo[1,5-a]pyrimidin-4(7H)-yl)methyl)-2-azabicyclo[2.2.1]heptane-2-sulfonamide]	> 100000				
Cc1cc2n(Cc3ccc(S(C)(=N)=O)cc3)cc(C(C)C)c(=O)n2n1 (single isomer, unassigned) [Compound 9A]	> 100000	> 100000			
CCc1nc2n(Cc3ccc([S@](C)(=N)=O)cc3)cc(C(C)C)c(=O)n2n1 (single isomer, unassigned) [Compound 31B]	> 100000	> 100000			
CC(C)c1cn(Cc2ccc([S@@](C)(=N)=O)cc2)c2nc(CC(F)(F)F)nn2c1=O (single isomer, unassigned) [Compound 32B]	> 100000	> 100000			
CC[S@](=N)(=O)c1ccc(Cn2cc(C(C)C)c(=O)n3nc(C4CC4)nc23)cc1 (single isomer, unassigned) [Compound 56A]			0.0398	0.001	
Cc1cc(Cn2cc(C(C)C)c(=O)n3nc(C4CC4)cc23)ccc1[S@@](C)(=N)=O (single isomer, unassigned) [Compound 58A]			0.2	0.00126	
Cc1cc(Cn2cc(C(C)C)c(=O)n3nc(C4CC4)nc23)ccc1[S@](C)(=N)=O (single isomer, unassigned) [Compound 65]			0.0398	0.00158	
CC(C)c1cn(Cc2ccc([S@](C)(=N)=O)c(F)c2)c2cc(C3CC3)nn2c1=O (single isomer, unassigned) [Compound 72]			0.2	0.00251	
CC(C)c1cn(C[C@@H]2C[C@@H]3C[C@H]2CN3S(N)(=O)=O)c2ncnn2c1=O [Compound 37, (1R,4R,5R)-5-((6-isopropyl-7-oxo-[1,2,4]triazolo[1,5-a]pyrimidin-4(7H)-yl)methyl)-2-azabicyclo[2.2.1]heptane-2-sulfonamide]	> 100000				
Cc1cc(Cn2cc(C(C)C)c(=O)n3nc(C4CC4)nc23)ccc1S(C)(=N)=O (centres unmarked) [Compound 71, 2-Cyclopropyl-6-isopropyl-4-(3-methyl-4-(S-methylsulfonimidoyl)benzyl)-[1,2,4]triazolo[1,5-a]pyrimidin-7(4H)-one]			0.251	0.00316	

The next lines start with results.

Kd (human CA-I (CA1) [1]) [µM]	Kd (human CA-II (CA2) [2]) [µM]	EC50 [3] [µM]	EC50 (Human ENPP1) [µM]	Structure (SMILES)	also measured
> 100000	> 100000			Cc1cc2n(Cc3ccc(S(C)(=N)=O)cc3)cc(C(C)C)c(=O)n2n1 (racemic) [9 Rac]	
> 100000	> 100000			CCc1nc2n(Cc3ccc([S@@](C)(=N)=O)cc3)cc(C(C)C)c(=O)n2n1 (single isomer, unassigned) [Compound 31A]	
		0.0251	0.000316	CC(C)c1cn(Cc2ccc([S@@](=N)(=O)C3CC3)cc2)c2nc(C3CC3)nn2c1=O (single isomer, unassigned) [Compound 55]	
		0.251	0.00631	CC(C)c1cn(Cc2ccc(S(N)(=O)=O)c(-c3ccccc3)n2)c2nc(C3CC3)nn2c1=O [Compound 27, 6-((2-cyclopropyl-6-isopropyl-7-oxo-[1,2,4]triazolo[1,5-a]pyrimidin-4(7H)-yl)methyl)-2-phenylpyridine-3-sulfonamide]	CA2 human SPR pKD (human CA-II (CA2) [4]): 3.0; CA1 human SPR pKD (human CA-I (CA1) [5]): 3.0
		0.0398	0.00126	CC(C)c1cn(Cc2ccc(S(=N)(=O)C3CC3)cc2)c2nc(C3CC3)nn2c1=O (centres unmarked) [Compound 54, 4-(4-(Cyclopropanesulfonimidoyl)benzyl)-2-cyclopropyl-6-isopropyl-[1,2,4]triazolo[1,5-a]pyrimidin-7(4H)-one]	

Source: US20260001886A1, “ENPP1 INHIBITORS I” (RE Ventures I, LLC, priority 2024, published 2026)
